Experimental findings from ChEMBL document CHEMBL1130993, “1,2-disubstituted cyclohexane derived tripeptide aldehydes as novel selective thrombin inhibitors” (Bioorg Med Chem Lett, 1998) are described below.

pIC50: −log10 of the molar value.

As usually defined, the inhibition is how much of the control response was suppressed. One may read the pIC50 as the negative decadic logarithm of the IC50, by convention in mol/L. High values mean a small IC50, low ones a large IC50.

For experiment [1], the target named is T1, Prothrombin (Homo sapiens, UniProt P00734). The experiment in a line: Compound was evaluated for percent inhibition of thrombin using the synthetic substrate chromozym TH at 100 uM.
Experiment [2] is described as follows: Compound was evaluated for IC50 ratio between human t-PA and thrombin.
The nature of experiment [3]: Compound was evaluated for IC50 ratio between human plasmin and thrombin.
The target of experiment [4] is T1, Prothrombin. Description: Compound was evaluated for the inhibition of thrombin using the synthetic substrate chromozym TH.

In turn, `CNC(Cc1ccccc1)C(=O)N[C@H]1CCCC[C@H]1C(=O)N[C@@H](C=O)CCCN=C(N)N` (stereo partly drawn) showed an inhibition against Prothrombin [1] of 6%.
As for `CNC(Cc1ccc2ccccc2c1)C(=O)N[C@H]1CCCC[C@H]1C(=O)N[C@@H](C=O)CCCN=C(N)N` (stereo partly drawn), the Selectivity in experiment [2] was more than 5000; in experiment [3], 4540. This molecule also showed a pIC50 at Prothrombin [4] of 7.66.
In the case of `CNC(Cc1ccccc1)C(=O)N[C@@H]1CCCC[C@H]1C(=O)N[C@@H](C=O)CCCN=C(N)N` (stereo partly drawn), the inhibition at Prothrombin [1] was 100%. In addition, the Selectivity in experiment [2] came out at 1000; in experiment [3], 38. The molecule further showed a pIC50 on Prothrombin [4] of 5.40.
On to `CN[C@H](Cc1ccccc1)C(=O)N1CCC[C@H]1C(=O)N[C@H](C=O)CCCNC(=N)N`, for which, in experiment [3], the Selectivity came to 413.
As for `CN(CCc1ccccc1)C(=O)[C@H]1CCCC[C@@H]1C(=O)N[C@@H](C=O)CCCN=C(N)N`, the inhibition against Prothrombin [1] was found to be 15%.
The same measure, in the same setting: as for `CN(CCc1ccccc1)C(=O)[C@@H]1CCCC[C@H]1C(=O)N[C@@H](C=O)CCCN=C(N)N`, the figure is 14%; as for `CN(Cc1ccccc1)C(=O)C1CCCCC1C(=O)N[C@@H](C=O)CCCN=C(N)N` (stereo partly drawn), 36%.
`CN(CCc1ccccc1)C(=O)[C@@H]1CCCC[C@@H]1C(=O)N[C@@H](C=O)CCCN=C(N)N` showed an inhibition on Prothrombin [1] of 100%. The Selectivity came to 308 in experiment [2] and 67 in experiment [3]. Also, the pIC50 at Prothrombin [4] was 4.92.
Regarding `CNC(Cc1ccccc1)C(=O)N[C@@H]1CCCC[C@@H]1C(=O)N[C@@H](C=O)CCCN=C(N)N` (stereo partly drawn), at Prothrombin [1], the inhibition came to 1%.
Same read-out and setting: as for `CN(Cc1ccccc1)C(=O)[C@@H]1CCCC[C@H]1C(=O)N[C@@H](C=O)CCCN=C(N)N`, the figure is 8%.
`CN[C@H](Cc1ccccc1)C(=O)N1CCC[C@H]1C(=O)N[C@H](C=O)CCCN=C(N)N` [EFEGATRAN] had a pIC50 on Prothrombin [4] of 7.34.
The molecule `CN(Cc1ccccc1)C(=O)[C@H]1CCCC[C@@H]1C(=O)N[C@@H](C=O)CCCN=C(N)N` showed an inhibition on Prothrombin [1] of 27%.
In the case of `CNC(Cc1ccccc1)C(=O)N[C@H]1CCCC[C@@H]1C(=O)N[C@@H](C=O)CCCN=C(N)N` (stereo partly drawn), the inhibition against Prothrombin [1] amounted to 39%.
For `CN(CCc1ccccc1)C(=O)C1CCCCC1C(=O)N[C@@H](C=O)CCCN=C(N)N` (stereo partly drawn), the inhibition at Prothrombin [1] is 100%. Further, at Prothrombin [4], the pIC50 is 4.08.
